Calls of active or inactive are those of the source. The calls are words filed in the database; no cut-off is given here.
Assays:
Escherichia coli [1] = experiment: Agonist activity at quorum sensing system in Escherichia coli NM522 carrying Vibrio fischeri luxR and luxICDBE promoter region assessed as bioluminescence production after 4 to 5 hrs by luminometer
[2] = (§1) Antagonist activity at quorum sensing system in Escherichia coli NM522 carrying Vibrio fischeri luxR and luxICDBE promoter region assessed as inhibition of 3-oxo-C6HSL induced bioluminescence production after 4 to 5 hrs by luminometer
Escherichia coli [3] = experiment: as §1
Escherichia coli [4] = experiment: Growth inhibition of Escherichia coli NM522 carrying Vibrio fischeri luxR and luxICDBE promoter region at 20 uM to 20 mM after overnight incubation by disk diffusion assay; type: organism-based; conditions: in vivo

Activity (Escherichia coli [1])	inhibition (Escherichia coli [3])	SMILES	IC50 [2]	Activity (Escherichia coli [4])
inactive	–	CCCC(O)C1=C/C(=C\Br)OC1=O (centres undefined)	18 µM	–
inactive	inactive	CCCC(O)C1=CCOC1=O (centres undefined)	–	–
inactive	–	CCCCCCC1=C/C(=C/Br)OC1=O	3 µM	–
inactive	–	CCCCCC(O)C1=C/C(=C/Br)OC1=O (centres undefined)	6 µM	–
inactive	–	CCCCCCCC(O)C1=C/C(=C/Br)OC1=O (centres undefined)	25 µM	–
–	–	CCCCC1=C(Br)/C(=C/Br)OC1=O	45 µM	–
inactive	–	C=C1C=C(C(O)CCCCC)C(=O)O1 (centres undefined)	8 µM	–
inactive	–	CCCC(O)C1=C/C(=C/Br)OC1=O (centres undefined)	14 µM	–
inactive	inactive	CCCCCC(O)C1=CCOC1=O (centres undefined)	–	–
inactive	–	C=C1C=C(CCCCCC)C(=O)O1	> 200 µM	–
inactive	–	CCCCC1=C/C(=C/Br)OC1=O	0.6 µM	Non-toxic
inactive	–	CCCCCCC1=CCOC1=O	> 200 µM	–
inactive	–	C=C1C=C(C(O)CCCCCCC)C(=O)O1 (centres undefined)	15 µM	–
inactive	inactive	CCCCCCCC(O)C1=CCOC1=O (centres undefined)	–	–
inactive	–	CCCCC1=CCOC1=O	> 200 µM	–
inactive	–	C=C1C=C(C(O)CCC)C(=O)O1 (centres undefined)	52 µM	–
inactive	–	C=C1C=C(CCCC)C(=O)O1	> 200 µM	–

Source: ChEMBL document CHEMBL3132788, “A new route towards fimbrolide analogues: importance of the exomethylene motif in LuxR dependent quorum sensing inhibition” (Medchemcomm, 2013)
